From ChEMBL document CHEMBL3507680, “University of Dundee, Gates Library screen for HepG2 cell viability”

Assay: Human HepG2 cell viability assay in 384 well format
Assay type: toxicity, cell-based
Parameters: dose 125 nL, time 70.5 hour; cytotoxicity at 70.5 h: concentration not given beside the values
Details: HepG2 cells, read-out: Inhibition
In the case of `CC(C)CN1CCC2(C1)CN(c1ncccn1)C2`, the cytotoxicity at 70.5 h was -11.9%. In the case of `O=C(c1ccco1)N1Cc2cnn(CC3CC3)c2C(COCC2CC2)C1` (stereo not drawn), the cytotoxicity at 70.5 h was 15.4%. With `Cc1ccc(NC(=O)N2CCN(Cc3noc(C4CC4)n3)CC2)cc1` the cytotoxicity at 70.5 h was 27.4%. `O=C1CCCN1CCCN1CCCC1Cn1cccn1` (stereo not drawn) showed a cytotoxicity at 70.5 h of 8.99%. With `Clc1ccccc1Cn1cc(CNC2CCc3ncnn3C2)cn1` (stereo not drawn) the cytotoxicity at 70.5 h was -0.86%. Work on `CCn1nc(C)c2ncnc(NCCCn3ccnc3)c21` yielded a cytotoxicity at 70.5 h of -9.37%. `CN1CCCN(C(=O)c2csc(-c3ccc(C(F)(F)F)cc3)n2)CC1` showed a cytotoxicity at 70.5 h of -7.23%. Molecule `c1cnc(-c2nc(CN3CCn4c(nnc4C4CC4)C3)cs2)nc1` has a cytotoxicity at 70.5 h of -9.61%. Work on `O=C(NC1CC1)c1ccnc(N2CCOC(c3ccc(Cl)cc3)C2)c1` (stereo not drawn) yielded a cytotoxicity at 70.5 h of 7.4%. Work on `COc1ccc(CN2CC[C@@]3(C2)[C@H](O)CN(C)S3(=O)=O)cc1F` yielded a cytotoxicity at 70.5 h of 0.857%. In the case of `CCN(CCn1cccn1)C(=O)CN1C(=O)OC[C@@H]1c1ccccc1`, the cytotoxicity at 70.5 h was -6.78%. Work on `Cc1n[nH]c(C)c1NC(=O)C1CCCN(C(=O)NCC(C)C)C1` (stereo not drawn) yielded a cytotoxicity at 70.5 h of -5.82%. In the case of `Cc1noc(C)c1CN(Cc1cccnc1)C1CN2CCC1CC2` (stereo not drawn), the cytotoxicity at 70.5 h was 25%. `O=C(c1ccc(F)cc1F)N1C[C@H]2CC[C@@H]1CN(Cc1ccccc1)C2` gave a cytotoxicity at 70.5 h of -2.62%. Molecule `CCNC(=O)NC1CCCN(c2ccc(C)cc2)C1=O` (stereo not drawn) has a cytotoxicity at 70.5 h of 0.44%. `CCCNC(=O)c1ccc2c(OC)n(C)nc2c1` gave a cytotoxicity at 70.5 h of 0.507%. With `CCCNCc1cc2c(C)cc(C)cc2n2c(=O)n(C)nc12` the cytotoxicity at 70.5 h was -8.78%. Molecule `CCOC(=O)C1CCN(C(=O)c2cc(OCC)c3ccoc3c2)CC1` has a cytotoxicity at 70.5 h of -10.7%. For `CS(=O)(=O)N1CCC2(CCN(Cc3nccs3)CC2)CC1`, the cytotoxicity at 70.5 h was -0.411%. `CCn1cc(NC(=O)NCC(C)N(C)C)cn1` (stereo not drawn) gave a cytotoxicity at 70.5 h of 18.2%. In the case of `CSCC(=O)N1C[C@H]2CC[C@@H]1CN(C1Cc3ccccc3C1)C2`, the cytotoxicity at 70.5 h was -9.76%. In the case of `COCC(O)CNC(=O)c1coc(COc2cccc(F)c2)n1` (stereo not drawn), the cytotoxicity at 70.5 h was -4.43%. `CCc1nc(C)sc1CN1CC[C@](O)(CC)[C@H](O)C1` showed a cytotoxicity at 70.5 h of -6.34%. `CN(Cc1ccco1)C1CCC12CCN(C(=O)c1ccco1)CC2` (stereo not drawn) gave a cytotoxicity at 70.5 h of -0.239%. In the case of `CCc1noc(C)c1C(=O)N1CCCC1Cn1cc(C)cn1` (stereo not drawn), the cytotoxicity at 70.5 h was 25.2%. With `O=C(O)[C@@H]1CN(C(=O)CN2CCCCCC2)C[C@H]1c1ccccc1` the cytotoxicity at 70.5 h was 1.47%. With `Cc1cc(NC(=O)CCN2CCn3c(nnc3C3CC3)C2)no1` the cytotoxicity at 70.5 h was -11.7%. With `Cc1ccccc1SCC(=O)NC1CCC(O)CC1` (stereo not drawn) the cytotoxicity at 70.5 h was 7.04%. Work on `CC(C)CCn1[nH]c(CNc2ccc(F)cc2)nc1=O` yielded a cytotoxicity at 70.5 h of -10.3%. Molecule `Cc1cnc(CNC(=O)[C@@H]2CC[C@@H]3[C@@H](CCN3Cc3ccco3)O2)cn1` has a cytotoxicity at 70.5 h of -11.9%. `CCn1ccnc1CN1CCN(CCOc2cccc(C#N)c2)CC1` showed a cytotoxicity at 70.5 h of -5.28%. In the case of `Cc1nc(CC(=O)N2CCCC(n3ccnc3C(C)C)C2)cs1` (stereo not drawn), the cytotoxicity at 70.5 h was -6.07%. `Cc1cc(C(=O)N2CCC3(CCCN(CC4CC4)C3=O)C2)c(C)n1C` (stereo not drawn) showed a cytotoxicity at 70.5 h of -2.9%. Molecule `CCn1cc(S(=O)(=O)Nc2nc3c(s2)CC(C)CC3)cn1` (stereo not drawn) has a cytotoxicity at 70.5 h of -6.65%. With `CCc1noc(CN2CCN(C(=O)c3ccccn3)CC2)n1` the cytotoxicity at 70.5 h was -7.01%. In the case of `COc1ccccc1CC(=O)N1CCC(NCc2ccncc2)CC1`, the cytotoxicity at 70.5 h was -1.58%. Work on `Cc1noc(C)c1CCC(=O)N1CCn2cccc2C1C` (stereo not drawn) yielded a cytotoxicity at 70.5 h of -0.947%. For `O=C1CCCc2nccc(-c3ccccc3)c21`, the cytotoxicity at 70.5 h was 23.5%. `Cc1nccn1CC1CCN(C(=O)c2cccs2)CC1` gave a cytotoxicity at 70.5 h of -17.8%. With `COc1ccc(Cl)cc1CS(=O)(=O)CC(=O)NC(C)CCC(C)C` (stereo not drawn) the cytotoxicity at 70.5 h was -11.8%. In the case of `COCc1cc(NCc2cccnc2Oc2ccc(C)nc2)ncn1`, the cytotoxicity at 70.5 h was -12.4%. Work on `Cc1cccc2cc(CN3CCCN4CCC[C@H]4C3)c(=O)[nH]c12` yielded a cytotoxicity at 70.5 h of 1.79%. Molecule `CCn1c(=O)c2sccc2n(CC(=O)Nc2cccc(Cl)c2)c1=O` has a cytotoxicity at 70.5 h of 8.59%. For `O=S1(=O)c2ccccc2OCC2(CCN(CCO)CC2)CN1CC1CC1`, the cytotoxicity at 70.5 h was -0.378%. Molecule `CN1CCN(Cc2cnc3n2CCN(CCc2ccccc2)C3)CC1` has a cytotoxicity at 70.5 h of 19.5%. In the case of `Cc1cnc(NS(=O)(=O)c2cccc(C#N)c2)s1`, the cytotoxicity at 70.5 h was 20.1%. Work on `Cc1ccc2[nH]c([C@H]3CCN(CC4CCCCC4)C3)nc2c1` yielded a cytotoxicity at 70.5 h of 5.77%. In the case of `O=C(NCCc1nccs1)C(c1ccccc1)n1cnnn1` (stereo not drawn), the cytotoxicity at 70.5 h was -4.94%. Molecule `CCN(C)S(=O)(=O)NCC(C)(O)c1ccsc1` (stereo not drawn) has a cytotoxicity at 70.5 h of -0.398%. `CCCC(N)CNS(=O)(=O)Cc1cccc(C#N)c1` (stereo not drawn) gave a cytotoxicity at 70.5 h of -3.64%. Work on `Cc1nc(CN2CCC(N(C)Cc3noc(C(C)C)n3)C2)oc1C` (stereo not drawn) yielded a cytotoxicity at 70.5 h of 10.7%. Work on `CN(Cc1ccco1)C1CCC12CCN(C(=O)c1ccnnc1)CC2` (stereo not drawn) yielded a cytotoxicity at 70.5 h of 5.1%. `Cn1ccnc1CN(CCO)C(=O)c1cnc2ccccc2c1` gave a cytotoxicity at 70.5 h of 0.182%. In the case of `COc1cc(C(=O)N(Cc2cnn(C)c2)C(C)C)ccc1OC(C)C`, the cytotoxicity at 70.5 h was 3.17%. In the case of `CCn1nc(C)c(NC(=O)CCn2ncc3cc(C)ccc32)c1C`, the cytotoxicity at 70.5 h was 13.9%. Molecule `Cc1ccc(C(=O)NS(=O)(=O)c2ccccc2C)c(=O)[nH]1` has a cytotoxicity at 70.5 h of -4.91%. `N#CCCCS(=O)(=O)N1CCCC1CC(=O)c1cccs1` (stereo not drawn) gave a cytotoxicity at 70.5 h of -6.62%. For `O=C1N(CC2CC2)CCC12CCN(c1ncccn1)CC2`, the cytotoxicity at 70.5 h was -3.31%.
